Measurements published in the supplement of paper PMC10307832.

Legend:
Test in all cases: relative viability (nuclei count vs DMSO), 5 days (fraction); higher = more cells survive
[1] = compound: COCC[n+]1c2c(n(Cc3cnccn3)c1C)C(=O)c1ccccc1C2=O [YM155] + C[C@]1(O)C[C@@H](c2nc(-c3ccc4ccc(-c5ccccc5)nc4c3)c3c(N)nccn32)C1 [Linsitinib] (partner 1 µM)
Procedure, shortened: (§1)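 Relative viability equals treated-well nuclei counts divided by vehicle-well nuclei counts. Counts came from 4× images of lung cancer cell lines grown in 1536-well plates for 5 days after pin-tool dosing on the day after seeding. Dosing used one drug alone or a fixed anchor-drug dose plus five library-drug doses (not always all listed) in √10 steps, and values are medians of duplicate plates.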

[2] = compound: COCC[n+]1c2c(n(Cc3cnccn3)c1C)C(=O)c1ccccc1C2=O [YM155] + CC1(C)CCC(c2ccc(Cl)cc2)=C(CN2CCN(c3ccc(C(=O)NS(=O)(=O)c4ccc(N[C@H](CCN5CCOCC5)CSc5ccccc5)c(S(=O)(=O)C(F)(F)F)c4)cc3)CC2)C1 [Navitoclax] (partner 0.5 µM)
Procedure, shortened: as §1

[3] = compound: CC(C)(C)c1cc(NC(=O)Nc2ccc(-c3cn4c(n3)sc3cc(OCCN5CCOCC5)ccc34)cc2)no1 [Quizartinib] + Cc1cc(Nc2cc(N3CCN(C)CC3)nc(Sc3ccc(NC(=O)C4CC4)cc3)n2)n[nH]1 [Tozasertib] (partner 0.1 µM)
Procedure, shortened: as §1

[4] = compound: COCC[n+]1c2c(n(Cc3cnccn3)c1C)C(=O)c1ccccc1C2=O [YM155] + CC(=O)c1c(C)c2cnc(Nc3ccc(N4CCNCC4)cn3)nc2n(C2CCCC2)c1=O [Palbociclib] (partner 0.5 µM)
Procedure, shortened: as §1

| Cell Line | relative viability ([1]; first compound 0.002 µM) | relative viability ([1]; first compound 0.006325 µM) | relative viability ([1]; first compound 0.02 µM) | relative viability ([1]; first compound 0.06325 µM) | relative viability ([2]; first compound 0.002 µM) | relative viability ([2]; first compound 0.006325 µM) | relative viability ([2]; first compound 0.02 µM) | relative viability ([2]; first compound 0.06325 µM) | relative viability ([3]; first compound 0.003162 µM) | relative viability ([3]; first compound 0.01 µM) | relative viability ([3]; first compound 0.03162 µM) | relative viability ([3]; first compound 0.1 µM) | relative viability ([4]; first compound 0.002 µM) | relative viability ([4]; first compound 0.006325 µM) | relative viability ([4]; first compound 0.02 µM) | relative viability ([4]; first compound 0.06325 µM) | relative viability ([3]; first compound 0.001 µM) |
| --- | --- | --- | --- | --- | --- | --- | --- | --- | --- | --- | --- | --- | --- | --- | --- | --- | --- |
| NCI-H2087 | 0.979 | 0.741 | 0.861 | 0.868 | 1.03 | 0.875 | 0.969 | 0.816 | 0.226 | 0.233 | 0.189 | 0.262 | 0.207 | 0.247 | 0.256 | 0.208 | – |
| NCI-H2126 | 0.704 | 0.722 | 0.704 | 0.771 | 0.866 | 0.877 | 0.871 | 0.875 | 0.848 | 0.831 | – | 0.846 | 0.354 | 0.369 | 0.369 | 0.369 | 0.751 |
| NCI-H2228 | 0.84 | 0.628 | 0.917 | 0.825 | 1.03 | 0.487 | 0.956 | 0.857 | 0.2 | 0.208 | 0.228 | 0.187 | 0.573 | 0.69 | 0.752 | 0.714 | 0.2 |
| NCI-H2347 | 0.965 | 0.93 | 1.1 | 0.618 | 0.756 | 0.779 | 0.83 | 0.46 | 0.419 | 0.531 | 0.511 | 0.521 | 0.422 | 0.399 | 0.389 | 0.37 | 0.547 |
| NCI-H2405 | 0.952 | 0.755 | 0.83 | 0.469 | 0.891 | 0.602 | 0.699 | 0.226 | 0.722 | 0.726 | 0.738 | 0.68 | 0.515 | 0.508 | 0.424 | 0.269 | 0.742 |
| NCI-H3122 | 0.97 | 1 | 0.993 | 1.09 | 0.969 | 1.04 | 1.02 | 1.05 | 0.368 | 0.483 | – | 0.337 | 0.184 | 0.178 | 0.218 | 0.171 | – |
| PC-3 [JPC-3] | 0.995 | 0.927 | 0.995 | 0.995 | 0.867 | 0.847 | 0.871 | 0.887 | 0.849 | 0.909 | 0.849 | 0.852 | 0.526 | 0.565 | 0.571 | 0.52 | 0.835 |
| PC-14 | 0.967 | 0.984 | 0.981 | 0.993 | 1.02 | 1.06 | 0.997 | 0.982 | 0.551 | 0.584 | 0.556 | 0.558 | 0.477 | 0.447 | 0.476 | 0.278 | 0.555 |
| RERF-LC-KJ | 0.859 | 0.878 | 0.923 | 0.864 | 1.04 | 1.07 | 0.974 | 1.06 | 0.445 | 0.53 | 0.248 | 0.337 | 1.09 | 1.1 | 1.02 | 0.985 | 0.47 |
| SK-LU-1 | 1.08 | 1.04 | 1.21 | 0.708 | 1.05 | 0.559 | 1.27 | 0.418 | 0.303 | 0.378 | 0.319 | 0.309 | 0.405 | 0.495 | 0.404 | 0.412 | 0.268 |
